Laboratory results as given in PubChem BioAssay AID330 (DTP/NCI, 2004).
Values joined by “and” are separate entries in the source; they are usually repeats but may differ in a detail not shown here. Identical values can stand only once. Inconclusive results and toxic doses are left out. Rule for the calls: active = survival T/C of 150% or more; inactive = T/C below 125% in these data.

Tested on: P388 leukemia ip, CD2F1 mice, survival T/C
Test: NCI In Vivo Anticancer Drug Screen. Data for tumor model P388 Leukemia (intraperitoneal) in CD2F1 (CDF1) mice
Details: endpoint: median survival time, higher = longer survival
In short: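 Mice carrying the transplanted tumor received test compound or vehicle. Survival was recorded in each group, and the value is the treated-group measurement divided by that of the vehicle-treated control group.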

[1] = dose: 100.0 mg/kg/injection, schedule: Q04DX003 (ip), vehicle: saline
[2] = dose: 200.0 mg/kg/injection, schedule: Q04DX003 (ip), vehicle: saline
[3] = dose: 400.0 mg/kg/injection, schedule: Q04DX003 (ip), vehicle: saline
[4] = dose: 60.0 mg/kg/injection, schedule: Q01DX005 (ip), vehicle: saline with Tween-80
[5] = dose: 120.0 mg/kg/injection, schedule: Q01DX005 (ip), vehicle: saline with Tween-80
[6] = dose: 240.0 mg/kg/injection, schedule: Q01DX005 (ip), vehicle: saline with Tween-80
[7] = dose: 50.0 mg/kg/injection, schedule: Q01DX005 (ip), vehicle: Klucel (hydroxypropylcellulose) (HPC)
[8] = dose: 100.0 mg/kg/injection, schedule: Q01DX005 (ip), vehicle: Klucel (hydroxypropylcellulose) (HPC)
[9] = dose: 50.0 mg/kg/injection, schedule: Q01DX009 (ip), vehicle: saline
[10] = dose: 100.0 mg/kg/injection, schedule: Q01DX009 (ip), vehicle: saline
[11] = dose: 200.0 mg/kg/injection, schedule: Q01DX005 (ip), vehicle: Klucel (hydroxypropylcellulose) (HPC)
[12] = dose: 12.5 mg/kg/injection, schedule: Q01DX009 (ip), vehicle: saline
[13] = dose: 25.0 mg/kg/injection, schedule: Q01DX009 (ip), vehicle: saline
[14] = dose: 6.25 mg/kg/injection, schedule: Q01DX009 (ip), vehicle: saline

Measured: T/C

CC1SC(C)SC(C(C)(C)O)S1 (centres undefined)
inactive: dose: 50.0 mg/kg/injection, schedule: Q01DX005 (ip), vehicle: saline with Tween-80 100 % of control | dose: 100.0 mg/kg/injection, schedule: Q01DX005 (ip), vehicle: saline with Tween-80 100 % of control | dose: 200.0 mg/kg/injection, schedule: Q01DX005 (ip), vehicle: saline with Tween-80 100 % of control

COC(=S)SCN(CSC(=S)OC)c1ccccc1Cl
inactive: [1] 100 % of control | [2] 100 % of control | [3] 118 % of control

O=C1CCCCCCCCCCCCCCO1
inactive: dose: 50.0 mg/kg/injection, schedule: Q01DX009 (ip), vehicle: Klucel (hydroxypropylcellulose) (HPC) 97 % of control | dose: 100.0 mg/kg/injection, schedule: Q01DX009 (ip), vehicle: Klucel (hydroxypropylcellulose) (HPC) 106 % of control | dose: 200.0 mg/kg/injection, schedule: Q01DX009 (ip), vehicle: Klucel (hydroxypropylcellulose) (HPC) 102 % of control | dose: 400.0 mg/kg/injection, schedule: Q01DX009 (ip), vehicle: Klucel (hydroxypropylcellulose) (HPC) 106 % of control

C[CH2][Sn]([CH2]C)([CH2]C)[O]C(=O)CO
inactive: dose: 1.56 mg/kg/injection, schedule: Q01DX009 (ip), vehicle: saline with Tween-80 115 % of control | dose: 3.12 mg/kg/injection, schedule: Q01DX009 (ip), vehicle: saline with Tween-80 122 % of control

Clc1ccc2nc3ccccc3c(SCCCCCCSc3c4ccccc4nc4ccc(Cl)cc34)c2c1
inactive: dose: 7.5 mg/kg/injection, schedule: Q01DX005 (ip), vehicle: Klucel (hydroxypropylcellulose) (HPC) 103 % of control | dose: 15.0 mg/kg/injection, schedule: Q01DX005 (ip), vehicle: Klucel (hydroxypropylcellulose) (HPC) 97 % of control | dose: 240.0 mg/kg/injection, schedule: Q01DX005 (ip), vehicle: Klucel (hydroxypropylcellulose) (HPC) 89 % of control

CCOC(=O)NNC(=O)Nc1ccccc1F
inactive: [4] 108 % of control | [5] 96 % of control | [6] 99 % of control

CCC(C)B1N(c2ccccc2)N=NN1C(C)(C)C (centres undefined)
inactive: [4] 97 % of control | [5] 97 % of control | [6] 105 % of control

COc1ccc2c(C)cc(N/N=C/c3ccccn3)nc2c1
inactive: dose: 25.0 mg/kg/injection, schedule: Q01DX005 (ip), vehicle: Klucel (hydroxypropylcellulose) (HPC) 102 % of control and 112 % of control | [7] 104 % of control and 118 % of control and 93 % of control | [8] 104 % of control and 112 % of control

CN(C)/C=C/C(=O)c1ccccc1
inactive: [4] 107 % of control | [5] 101 % of control | [6] 102 % of control

CC(C)(C)c1cc(C(c2ccc3c(c2)OCO3)N2CCOCC2)c(O)c(C(C)(C)C)c1 (centres undefined)
inactive: [4] 100 % of control | [5] 100 % of control | [6] 100 % of control

CO[Si](CCCN)(OC)OC
inactive: [9] 119 % of control | [10] 105 % of control | dose: 200.0 mg/kg/injection, schedule: Q01DX009 (ip), vehicle: saline 110 % of control

COC(=O)/C=C1\C(=O)OCC1(C)C
inactive: [1] 100 % of control | [2] 104 % of control | [3] 103 % of control

CC[N+](C)(CC)CCNc1cc2c(c3c(=O)c4ccccc4sc13)CCCC2
inactive: dose: 25.0 mg/kg/injection, schedule: Q01DX005 (ip), vehicle: distilled water + Tween-80 119 % of control | dose: 50.0 mg/kg/injection, schedule: Q01DX005 (ip), vehicle: distilled water + Tween-80 106 % of control | dose: 100.0 mg/kg/injection, schedule: Q01DX005 (ip), vehicle: distilled water + Tween-80 101 % of control

CCC(O)CC1OC2(CCC1C)CC1OC(=O)/C=C\C(C)(O)C(O)C(C)C(O)C(OC3CC(OC)C(O)C(C)O3)C(O)C(C)(O)CCC/C=C/C3CC(C)COC3(O)CC(O2)C1C (centres undefined)
inactive: dose: 1.0 mg/kg/injection, schedule: Q01DX005 (ip), vehicle: saline + alcohol 100 % of control | dose: 2.0 mg/kg/injection, schedule: Q01DX005 (ip), vehicle: saline + alcohol 104 % of control

CC(=O)OCC1OC(n2nnc(CCl)c2CCl)C(OC(C)=O)C(OC(C)=O)C1OC(C)=O (centres undefined)
inactive: dose: 50.0 mg/kg/injection, schedule: Q01DX009 (ip), vehicle: saline with Tween-80 110 % of control | dose: 100.0 mg/kg/injection, schedule: Q01DX009 (ip), vehicle: saline with Tween-80 98 % of control | dose: 200.0 mg/kg/injection, schedule: Q01DX009 (ip), vehicle: saline with Tween-80 117 % of control

CC(C)(C#N)NCCCCCCNC(C)(C)C#N
inactive: [7] 96 % of control | [8] 93 % of control | [11] 100 % of control

CN1C(C)(C)CC(O)(C(=O)O)CC1(C)C
inactive: dose: 50.0 mg/kg/injection, schedule: Q01DX005 (ip), vehicle: saline 94 % of control | dose: 100.0 mg/kg/injection, schedule: Q01DX005 (ip), vehicle: saline 91 % of control | dose: 200.0 mg/kg/injection, schedule: Q01DX005 (ip), vehicle: saline 87 % of control

NC(=S)Nc1ccc(Cc2ccc(NC(N)=S)cc2)cc1
inactive: dose: 25.0 mg/kg/injection, schedule: Q04DX003 (ip), vehicle: saline with Tween-80 101 % of control | dose: 50.0 mg/kg/injection, schedule: Q04DX003 (ip), vehicle: saline with Tween-80 101 % of control | dose: 100.0 mg/kg/injection, schedule: Q04DX003 (ip), vehicle: saline with Tween-80 100 % of control | dose: 200.0 mg/kg/injection, schedule: Q04DX003 (ip), vehicle: saline with Tween-80 99 % of control

O=C1NN2CCCN=C2c2ccncc21
inactive: dose: 60.0 mg/kg/injection, schedule: Q01DX005 (ip), vehicle: saline 98 % of control | dose: 120.0 mg/kg/injection, schedule: Q01DX005 (ip), vehicle: saline 97 % of control | dose: 240.0 mg/kg/injection, schedule: Q01DX005 (ip), vehicle: saline 93 % of control

CC(C)(C)C(C(=O)O)C(=O)O
inactive: [12] 101 % of control | [13] 99 % of control | [9] 96 % of control | [10] 99 % of control

Nc1ncnc2c1ncn2C1OC(COS(N)(=O)=O)C(O)C1O (centres undefined)
inactive: dose: 0.02 mg/kg/injection, schedule: Q01DX005 (ip), vehicle: saline 98 % of control | dose: 0.04 mg/kg/injection, schedule: Q01DX005 (ip), vehicle: saline 103 % of control | dose: 0.09 mg/kg/injection, schedule: Q01DX005 (ip), vehicle: saline 119 % of control | dose: 0.18 mg/kg/injection, schedule: Q01DX001 (ip), vehicle: saline 109 % of control

CC(C)=NN(C)/C=N/S(=O)(=O)c1ccccc1
inactive: [7] 100 % of control | [8] 97 % of control | [11] 98 % of control

C/C(=N/NC(N)=O)c1cccc(/C(C)=N/NC(N)=O)n1.[Cl][Zn][Cl]
inactive: [14] 103 % of control | [12] 102 % of control | [13] 105 % of control

O=C1OCCOCCOCCOC(=O)c2ccccc2SSc2ccccc21
inactive: dose: 100.0 mg/kg/injection, schedule: Q01DX001 (ip), vehicle: saline with Tween-80 90 % of control | dose: 200.0 mg/kg/injection, schedule: Q01DX001 (ip), vehicle: saline with Tween-80 97 % of control

O=[N+]([O-])[O-].OCCNCCNCC[OH2+].OCCNCCNCC[OH2+].[Ni+2]
inactive: dose: 3.13 mg/kg/injection, schedule: Q01DX009 (ip), vehicle: saline 88 % of control | [14] 90 % of control | [12] 102 % of control and 86 % of control

CNC(=O)Oc1[nH]c(=O)ncc1I
inactive: dose: 50.0 mg/kg/injection, schedule: Q04DX002 (ip), vehicle: saline with Tween-80 100 % of control | dose: 100.0 mg/kg/injection, schedule: Q04DX002 (ip), vehicle: saline with Tween-80 108 % of control and 109 % of control and 110 % of control | dose: 200.0 mg/kg/injection, schedule: Q04DX002 (ip), vehicle: saline with Tween-80 105 % of control and 116 % of control
